The target in assay [1] is Dihydroorotate dehydrogenase (quinone), mitochondrial (Homo sapiens, UniProt Q02127). Kind of assay: Inhibitory activity against recombinant human DHODH.
Another assay concerns PBMC. Kind of assay: Antiproliferative activity on human PBMC. It counts as functional, cell-based.

Experimental findings from ChEMBL document CHEMBL1147753, “Biphenyl-4-ylcarbamoyl thiophene carboxylic acids as potent DHODH inhibitors” (Bioorg Med Chem Lett, 2006) are described below.

Chain of Dihydroorotate dehydrogenase (quinone), mitochondrial (Q02127 whole entry): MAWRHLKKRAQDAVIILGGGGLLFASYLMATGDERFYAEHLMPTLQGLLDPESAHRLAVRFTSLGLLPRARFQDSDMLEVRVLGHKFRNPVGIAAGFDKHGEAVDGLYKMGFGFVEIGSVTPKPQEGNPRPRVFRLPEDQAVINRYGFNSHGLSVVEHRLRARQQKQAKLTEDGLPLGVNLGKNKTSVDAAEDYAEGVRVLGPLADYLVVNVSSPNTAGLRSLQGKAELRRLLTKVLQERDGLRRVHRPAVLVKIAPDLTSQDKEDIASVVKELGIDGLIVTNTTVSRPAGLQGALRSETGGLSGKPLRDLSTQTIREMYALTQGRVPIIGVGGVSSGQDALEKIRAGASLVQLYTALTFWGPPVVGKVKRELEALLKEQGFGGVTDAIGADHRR

For `COc1cccc(-c2ccc(NC(=O)c3cc(C(=O)O)sc3C(=O)O)c(F)c2)c1`, the half-maximal inhibitory concentration (IC50) in assay [1] is over 1000 nM.
In the case of `COc1cccc(-c2ccc(NC(=O)c3ccsc3C(=O)O)c(F)c2)c1`, the IC50 turned out to be 44 nM in assay [1] and 20000 nM in the assay on PBMC.
The like results for `CCOc1cccc(-c2cc(F)c(NC(=O)c3cocc3C(=O)O)c(F)c2)c1` were, in that order, 16 nM and 15000 nM.
Consider `COc1cccc(-c2ccc(NC(=O)c3cocc3C(=O)O)c(F)c2)c1`, for which, in assay [1], the IC50 amounted to 340 nM.
Same read-out and setting: under `CCOc1cccc(-c2cc(F)c(NC(=O)c3ccsc3C(=O)O)c(F)c2)c1` stands 3 nM.
The same measure, in the same setting: under `COc1cccc(-c2ccc(NC(=O)c3csc(C(=O)O)c3C(=O)O)c(F)c2)c1` stands over 1000 nM.
Regarding `CCOc1ccccc1-c1cc(F)c(NC(=O)c2ccsc2C(=O)O)c(F)c1`, the IC50 in assay [1] was found to be 9 nM.
Take `O=C(Nc1ccc(-c2ccccc2)cc1)c1ccsc1C(=O)O`: in assay [1], the IC50 stood at 303 nM.
The same measure, in the same setting: under `CCOc1ccccc1-c1cc(F)c(NC(=O)c2cscc2C(=O)O)c(F)c1` stands 10 nM.
`COc1ccccc1-c1c(F)c(F)c(NC(=O)c2ccsc2C(=O)O)c(F)c1F` had a half-inhibitory concentration (IC50) in the assay on PBMC of 2000 nM.
Consider `COc1cccc(-c2ccc(NC(=O)c3c(C(=O)O)csc3C(=O)O)c(F)c2)c1`, for which the IC50 in assay [1] was over 1000 nM.
With `O=C(O)c1cscc1C(=O)Nc1ccc(-c2ccccc2)cc1`, the concentration for half-maximal inhibition (IC50) in assay [1] turned out to be 1000 nM.
Take `O=C(O)c1cscc1C(=O)Nc1c(F)cc(-c2ccccc2OC(F)(F)F)cc1F`: the values for the half-inhibitory concentration (IC50) (in assay [1]; with PBMC) were 10 nM and 2000 nM, respectively.
`COc1ccccc1-c1ccc(NC(=O)c2ccsc2C(=O)O)cc1Cl`: the IC50 in assay [1] worked out at 12 nM.
